Measured values published in PubChem BioAssay (NCI).
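All cell lines were grown in 96-well plates and treated with compound for 48 hours. At the GI50, growth is halved. TGI denotes the concentration required for complete inhibition of growth.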

What was measured:
Assay in all cases: NCI anticancer screen, dose series, 48 h
[1] = test system: UO-31 renal
[2] = test system: SW-620 colon
[3] = test system: TK-10 renal
[4] = test system: HOP-62 NSCLC
[5] = test system: HCC-2998 colon
[6] = test system: A549 NSCLC
[7] = test system: OVCAR-5 ovarian
[8] = test system: SK-MEL-2 melanoma
[9] = test system: HT29 colon
[10] = test system: HCT-116 colon
[11] = test system: OVCAR-8 ovarian
[12] = test system: SR leukemia
[13] = test system: HCT-15 colon
[14] = test system: SNB-19 CNS
[15] = test system: U251 CNS
[16] = test system: NCI-H522 lung
[17] = test system: KM12 colon
[18] = test system: IGROV1 ovarian
[19] = test system: LOX IMVI melanoma
[20] = test system: CCRF-CEM leukemia
[21] = test system: NCI-H226 lung
[22] = test system: UACC-62 melanoma
[23] = test system: MDA-MB-435
[24] = test system: M14 melanoma
[25] = test system: MALME-3M melanoma
[26] = test system: HL-60(TB) leukemia
[27] = test system: NCI-H23 lung
[28] = test system: SN12C renal
[29] = test system: 786-0 renal
[30] = test system: SF-268 CNS
[31] = test system: PC-3 prostate
[32] = test system: SF-295 CNS
[33] = test system: ACHN renal
[34] = test system: SNB-75 CNS
[35] = test system: NCI/ADR-RES ovarian
[36] = test system: RXF 393 renal
[37] = test system: OVCAR-4 ovarian
[38] = test system: OVCAR-3 ovarian
[39] = test system: HOP-92 NSCLC
[40] = test system: MOLT-4 leukemia
[41] = test system: K-562 leukemia
[42] = test system: NCI-H460 lung
[43] = test system: SK-MEL-5 melanoma
[44] = test system: MCF7 breast
[45] = test system: BT-549 breast
[46] = test system: A498 renal
[47] = test system: SK-MEL-28 melanoma
[48] = test system: COLO 205 colon
[49] = test system: MDA-MB-231 breast
[50] = test system: T-47D breast
[51] = test system: EKVX NSCLC
[52] = test system: DU-145 prostate
[53] = test system: CAKI-1 renal
[54] = test system: UACC-257 melanoma
[55] = test system: SK-OV-3 ovarian
[56] = test system: HS 578T breast
[57] = test system: RPMI-8226 leukemia
[58] = test system: SF-539 CNS

## Cc1cc2c([nH]1)CSc1cc(S(=O)(=O)c3ccccc3)c(=O)[nH]c1-2
[1]
  GI50: 16.4 µM
  TGI: > 93.6 µM
[2]
  GI50: 0.306 µM
  TGI: > 100 µM
[3]
  GI50: 21.7 µM
  TGI: > 100 µM
[4]
  GI50: 2.09 µM
  TGI: > 100 µM
[5]
  GI50: 3.42 µM
  TGI: > 42.6 µM
[6]
  GI50: 43.8 µM
  TGI: > 100 µM
[7]
  GI50: 17.6 µM
  TGI: > 100 µM
[8]
  GI50: 1.46 µM
  TGI: > 83.2 µM
[9]
  GI50: 0.316 µM
[10]
  GI50: 0.368 µM
  TGI: 10.9 µM
[11]
  GI50: 1.54 µM
  TGI: > 100 µM
[12]
  GI50: 0.167 µM
  TGI: > 100 µM
[13]
  GI50: 0.392 µM
  TGI: > 100 µM
[14]
  GI50: 2.16 µM
  TGI: > 100 µM
[15]
  GI50: 0.388 µM
  TGI: > 100 µM
[16]
  GI50: 3.77 µM
  TGI: 36.7 µM
[17]
  GI50: 0.461 µM
  TGI: 5.24 µM
[18]
  GI50: 0.82 µM
  TGI: > 95.5 µM
[19]
  GI50: 0.61 µM
  TGI: > 73.2 µM
[20]
  GI50: 0.452 µM
  TGI: > 100 µM
[21]
  GI50: 14.6 µM
  TGI: > 88.7 µM
[22]
  GI50: 0.465 µM
  TGI: > 39.6 µM
[23]
  GI50: 0.197 µM
  TGI: 0.46 µM
[24]
  GI50: 0.289 µM
  TGI: 2.16 µM
[25]
  GI50: 0.568 µM
  TGI: 75.9 µM
[26]
  GI50: 0.249 µM
[27]
  GI50: 1.04 µM
  TGI: 60.6 µM
[28]
  GI50: 0.666 µM
  TGI: > 100 µM
[29]
  GI50: 14.9 µM
  TGI: > 100 µM
[30]
  GI50: 2.39 µM
  TGI: > 80.9 µM
[31]
  GI50: 0.351 µM
  TGI: > 100 µM
[32]
  GI50: 2.4 µM
  TGI: 8.09 µM
[33]
  GI50: 13.3 µM
  TGI: > 100 µM
[34]
  GI50: 1.56 µM
  TGI: > 24 µM
[35]
  GI50: 0.445 µM
  TGI: 2.17 µM
[36]
  GI50: 4.64 µM
  TGI: > 61.5 µM
[37]
  GI50: 0.553 µM
  TGI: > 86.2 µM
[38]
  GI50: 0.246 µM
  TGI: 0.615 µM
[39]
  GI50: 0.139 µM
  TGI: 1.32 µM
[40]
  GI50: 2.74 µM
  TGI: > 100 µM
[41]
  GI50: 2.56 µM
  TGI: > 100 µM
[42]
  GI50: 20.6 µM
  TGI: 68.5 µM
[43]
  GI50: 0.5 µM
  TGI: 16.1 µM
[44]
  GI50: 0.263 µM
  TGI: 16.1 µM
[45]
  GI50: 0.732 µM
  TGI: > 74.4 µM
[46]
  GI50: 22.1 µM
  TGI: 69.7 µM
[47]
  GI50: 4.67 µM
  TGI: 42.5 µM
[48]
  GI50: 14.1 µM
  TGI: 35.2 µM
[49]
  GI50: 1.63 µM
  TGI: > 100 µM
[50]
  GI50: 0.35 µM
  TGI: 55.1 µM
[51]
  GI50: 21 µM
  TGI: > 100 µM
[52]
  GI50: 0.722 µM
  TGI: 13.2 µM
[53]
  GI50: 4.4 µM
  TGI: > 58.4 µM
[54]
  GI50: 17.3 µM
  TGI: > 100 µM
[55]
  GI50: 21.9 µM
  TGI: > 100 µM
[56]
  GI50: 1.8 µM
  TGI: 9.43 µM
[57]
  GI50: 0.806 µM
  TGI: > 100 µM
[58]
  GI50: 0.327 µM
  TGI: 1.82 µM
